Assay results from patent publication US9315494B2, “Alkyl-amide-substituted pyridyl compounds useful as modulators of IL-12, IL-23 and/or IFNα responses” (Bristol-Myers Squibb Company, priority 2012, dated 2016).
pIC50: −log10 of the molar value.

What was measured:
[1] = tested on: IL-23-stimulated STAT-dependent luciferase reporter in Kit225 T cells; assay: Kit225 T cell assay, IL-23 stimulated STAT-dependent luciferase reporter; format: cell-based, human; details: Kit225 T cells, 20 ng/mL human recombinant IL-23, 5-6 hours, luciferase; read-out: IL23 (Kit225 T Cell Inhibition Data)
Procedure, shortened: (§1)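 Stimulus was either 200 U/mL human recombinant IFNα or 20 ng/mL IL-23, applied for 5-6 h to reporter-bearing Kit225 T cells grown in RPMI/10% FBS. Luciferase expression then quantified by luminescent assay.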

[2] = tested on: IFNα-stimulated STAT-dependent luciferase reporter in Kit225 T cells; assay: Kit225 T cell assay, IFNα stimulated STAT-dependent luciferase reporter; format: cell-based, human; details: Kit225 T cells, 200 U/mL human recombinant IFNα, 5-6 hours, luciferase; read-out: IFNα (Kit225 T Cell Inhibition Data)
Procedure, shortened: as §1

SMILES | pIC50 [1] | pIC50 [2]
CNC(=O)c1cnc(Nc2ccc(N3CCOCC3)cn2)cc1Nc1ccccc1F [Example 214] | 5.53 | 5.70
CCc1cccc(Nc2cc(Nc3ccc(N4CCOCC4)cn3)ncc2C(=O)NC)c1 [Example 215] | 5.31 | 5.36
CNC(=O)c1cnc(Nc2ccc(N3CCOCC3)cn2)cc1Nc1ccccc1OC [Example 216] | 6.82 | 6.92
CNC(=O)c1cnc(Nc2ccc(N3CCOCC3)cn2)cc1Nc1ccc(F)cc1OC [Example 218] | 6.10 | 6.59
CNC(=O)c1cnc(Nc2ccc(N3CCOCC3)cn2)cc1Nc1c(F)cccc1OC [Example 219] | 5.29 | 5.55
CNC(=O)c1cnc(Nc2ccc(N3CCOCC3)cn2)cc1Nc1ccc(OC)cc1OC [Example 220] | 6.31 | 6.68
CNC(=O)c1cnc(Nc2ccc(N3CCOCC3)cn2)cc1Nc1ccc(Br)cc1OC [Example 221] | 6.34 | 6.82
CNC(=O)c1cnc(Nc2ccc(N3CCOCC3)cn2)cc1Nc1cc(S(C)(=O)=O)ccc1OC [Example 222] | 5.09 | 5.08
CCOc1ccccc1Nc1cc(Nc2ccc(N3CCOCC3)cn2)ncc1C(=O)NC [Example 223] | 6.41 | 6.72
CNC(=O)c1cnc(Nc2ccc(N3CCOCC3)cn2)cc1Nc1cccc2c1OCCO2 [Example 225] | 6.80 | 7.05
CNC(=O)c1cnc(Nc2ccc(N3CCOCC3)cn2)cc1Nc1ccc(F)cc1O [Example 227] | 5.34 | 5.49
CCOc1ccc(OCC)c(Nc2cc(Nc3ccc(N4CCOCC4)cn3)ncc2C(=O)NC)c1 [Example 229] | 6.51 | 6.59
CCOc1c(F)cc(F)cc1Nc1cc(Nc2ccc(N3CCOCC3)cn2)ncc1C(=O)NC [Example 230] | 6.65 | 6.80
CNC(=O)c1cnc(Nc2ccc(F)cn2)cc1Nc1ccccc1N [Example 231] | 5.04 | 5.51
CCOc1cc(F)ccc1Nc1cc(Nc2ccc(N3CCOCC3)cn2)ncc1C(=O)NC [Example 232] | 5.52 | 5.68
CNC(=O)c1cnc(Nc2ccc(F)cn2)cc1Nc1ccc(C(N)=O)cc1OC [Example 233] | 5.86 | 6.06
CNC(=O)c1cnc(Nc2ccc(F)cn2)cc1Nc1ccc(C(N)=O)cc1C [Example 234] | 5.55 | 5.73
CNC(=O)c1cnc(Nc2ccc(F)cn2)cc1Nc1ccc(C(=O)N2CCCCC2)cc1C [Example 235] | 5.85 | 6.15
CNC(=O)c1cnc(Nc2ccc(F)cn2)cc1Nc1ccc(C(=O)N2CCOCC2)cc1C [Example 236] | 5.66 | 5.95
CNC(=O)c1cnc(Nc2ccc(F)cn2)cc1Nc1ccc(C(=O)N2CCCCC2)cc1OC [Example 239] | 6.53 | 6.64
CCN(CC)C(=O)c1ccc(Nc2cc(Nc3ccc(F)cn3)ncc2C(=O)NC)c(OC)c1 [Example 240] | 6.20 | 6.39
CNC(=O)c1cnc(Nc2ccc(F)cn2)cc1Nc1ccc(C(=O)N2CCOCC2)cc1OC [Example 241] | 6.04 | 6.30
CNC(=O)c1cnc(Nc2ccc(F)cn2)cc1Nc1ccc(C(N)=O)cc1 [Example 242] | 5.76 | 5.57
CNC(=O)c1ccc(Nc2cc(Nc3ccc(F)cn3)ncc2C(=O)NC)cc1 [Example 243] | 5.34 | 5.68
CNC(=O)c1cnc(Nc2ccc(F)cn2)cc1Nc1ccc(C(=O)N2CCCCC2)cc1 [Example 244] | 5.94 | 5.90

SMILES | pIC50 [1] | pIC50 [2]
CNC(=O)c1cnc(Nc2ccc(F)cn2)cc1Nc1ccc(C(=O)N2CCOCC2)cc1 [Example 245] | 5.49 | 5.44
CCN(CC)C(=O)c1ccc(Nc2cc(Nc3ccc(F)cn3)ncc2C(=O)NC)cc1 [Example 246] | 5.62 | 5.78
CNC(=O)c1cnc(Nc2ccc(F)cn2)cc1Nc1ccc(C(=O)N2CCC(F)(F)C2)cc1OC [Example 247] | 6.39 | 6.59
CNC(=O)c1cnc(Nc2ccc(F)cn2)cc1Nc1ccc(C(=O)N2CCCC2)cc1OC [Example 248] | 6.30 | 6.60
CNC(=O)c1cnc(Nc2ccc(F)cn2)cc1Nc1ccc(C(=O)NCCc2c[nH]cn2)cc1OC [Example 249] | 4.98 | 5.19
CNC(=O)c1cnc(Nc2ccc(F)cn2)cc1Nc1ccc(OC)cc1C(N)=O [Example 250] | 6.33 | 6.52
CNC(=O)c1cnc(Nc2ccc(F)cn2)cc1Nc1ccccc1C(=O)N(C)C [Example 251] | 5.97 | 6.17
CNC(=O)c1cnc(Nc2ccc(F)cn2)cc1Nc1ccc(OC(F)(F)F)cc1C(N)=O [Example 252] | 5.89 | 6.37
CNC(=O)c1ccnc(Nc2cc(Nc3ccc(Cl)cc3OC)c(C(=O)NC)cn2)c1 [Example 254] | 6.31 | 6.51
CNC(=O)c1cnc(Nc2ccc(C(N)=O)cn2)cc1Nc1ccc(Cl)cc1OC [Example 255] | 5.81 | 6.15
CNC(=O)c1cnc(Nc2cc(C(N)=O)ccn2)cc1Nc1ccc(F)c(F)c1OC [Example 256] | 6.25 | 6.15
CNC(=O)c1ccnc(Nc2cc(Nc3ccc(F)c(F)c3OC)c(C(=O)NC)cn2)c1 [Example 257] | 6.24 | 6.22
CNC(=O)c1cnc(Nc2cc(C(=O)N(C)C)ccn2)cc1Nc1ccc(F)c(F)c1OC [Example 258] | 6.19 | 6.51
CNC(=O)c1cnc(Nc2cc(C(=O)NC3CC3)ccn2)cc1Nc1ccc(Cl)cc1OC [Example 259] | 6.36 | 6.70
CNC(=O)c1ccc(Nc2cc(Nc3ccc(Cl)cc3OC)c(C(=O)NC)cn2)nc1 [Example 260] | 5.62 | 5.75
CNC(=O)c1cnc(Nc2ccc(C(=O)N(C)C)cn2)cc1Nc1ccc(Cl)cc1OC [Example 262] | 6.14 | 6.39
CNC(=O)c1cnc(Nc2ccc(C(=O)N3CCOCC3)cn2)cc1Nc1ccc(Cl)cc1OC [Example 263] | 5.30 | 5.44
CNC(=O)c1cnc(Nc2cc(C(N)=O)ccn2)cc1Nc1cc(F)cc(F)c1OC [Example 264] | 6.27 | 6.46
CNC(=O)c1cnc(Nc2cc(C(=O)N3CCOCC3)ccn2)cc1Nc1cc(F)cc(F)c1OC [Example 265] | 6.50 | 6.68
CNC(=O)c1cnc(Nc2cc(C(N)=O)ccn2)cc1Nc1ccc(F)cc1OC [Example 267] | 5.58 | 5.74
CNC(=O)c1cnc(Nc2cc(C(=O)N3CCCC3)ccn2)cc1Nc1ccc(F)cc1OC [Example 268] | 6.11 | 6.13
CNC(=O)c1cnc(Nc2cc(C(=O)N3CCOCC3)ccn2)cc1Nc1ccc(F)cc1OC [Example 269] | 5.96 | 6.05
CNC(=O)c1cnc(Nc2cc(C(=O)N3CCCC3)ccn2)cc1Nc1cc(F)cc(F)c1OC [Example 270] | 6.66 | 6.77
CNC(=O)c1cnc(Nc2cc(C(=O)NCCOC)ccn2)cc1Nc1ccc(F)cc1OC [Example 271] | 5.93 | 6.09
CNC(=O)c1cnc(Nc2cc(C(=O)N(C)C)ccn2)cc1Nc1ccc(F)cc1OC [Example 272] | 5.98 | 6.22
